# From patent US12479849B2, “EGFR inhibitors for the treatment of cancer” (Hoffmann-La Roche Inc., priority 2019, dated 2025)
# Biological target: T1, EGFR TMLRCS (Homo sapiens, UniProt P00533, C797S/L858R/T790M)
# T1 construct: host or cells: BaF3-TMLRCS (Ba/F3 cells, kept under puromycin selection)
# Test: HTRF Phospho EGFR TMLRCS Assay (Cellular)
# Assay type: cell-based
# Details: BaF3-TMLRCS cell line, 4 hours incubation, Phospho-EGFR HTRF readout
# Protocol: HTRF Phospho EGFR TMLRCS Assay (Cellular)
# BaF3-TMLRCS cell line were obtained from Crownbio (San Diego, CA, USA). Cells were maintained at 37° C., 5% CO2 in RPMI ATCC (Gibco 31870)+2 mM Glutamine+0.5 μg/ml Puromycin supplemented with 10% fetal bovine serum (FBS) (Gibco).
# Cells are transferred as above to Greiner Bio-One, Nr. 784-08 micro-titerplate at 20000 cells/well in 12.5 μl of growth medium/well after the plates had been pre-filled with 12.5 nl of DMSO solutions of the to be tested compounds (in dose response) or DMSO only. After spinning the plates at 300×g for 30 seconds the cells were incubated for 4 hours at 37 C, 5% CO2, 95% humidity. The cells were lysed by adding to the compound mix 4 μl/well of the supplemented lysis buffer (Cis-bio, Phospho-EGFR HTRF kit, 64EG1PEH), followed by incubation for 30 min at room temperature with shaking (400 rpm). The plates were then frozen and stored overnight at −80 C. On the next day and after thawing the plates, 4 μl of a mixture of anti-Phospho-EGFR Cryptate and of anti-Phospho-EGFR-d2 antibody solutions prepared in the supplied detection buffer was added to each well. The lidded plates were then incubated for 4 h at room temperature before reading the fluorescence emission at 616 and 665 nm using an Envision reader (Perkin Elmer). Data was analyzed in similar fashion as above using the normalized ratio of the 665 to 616 signals multiplied by 10000.
# T1 sequence (P00533 25-1210 T790M/C797S/L858R): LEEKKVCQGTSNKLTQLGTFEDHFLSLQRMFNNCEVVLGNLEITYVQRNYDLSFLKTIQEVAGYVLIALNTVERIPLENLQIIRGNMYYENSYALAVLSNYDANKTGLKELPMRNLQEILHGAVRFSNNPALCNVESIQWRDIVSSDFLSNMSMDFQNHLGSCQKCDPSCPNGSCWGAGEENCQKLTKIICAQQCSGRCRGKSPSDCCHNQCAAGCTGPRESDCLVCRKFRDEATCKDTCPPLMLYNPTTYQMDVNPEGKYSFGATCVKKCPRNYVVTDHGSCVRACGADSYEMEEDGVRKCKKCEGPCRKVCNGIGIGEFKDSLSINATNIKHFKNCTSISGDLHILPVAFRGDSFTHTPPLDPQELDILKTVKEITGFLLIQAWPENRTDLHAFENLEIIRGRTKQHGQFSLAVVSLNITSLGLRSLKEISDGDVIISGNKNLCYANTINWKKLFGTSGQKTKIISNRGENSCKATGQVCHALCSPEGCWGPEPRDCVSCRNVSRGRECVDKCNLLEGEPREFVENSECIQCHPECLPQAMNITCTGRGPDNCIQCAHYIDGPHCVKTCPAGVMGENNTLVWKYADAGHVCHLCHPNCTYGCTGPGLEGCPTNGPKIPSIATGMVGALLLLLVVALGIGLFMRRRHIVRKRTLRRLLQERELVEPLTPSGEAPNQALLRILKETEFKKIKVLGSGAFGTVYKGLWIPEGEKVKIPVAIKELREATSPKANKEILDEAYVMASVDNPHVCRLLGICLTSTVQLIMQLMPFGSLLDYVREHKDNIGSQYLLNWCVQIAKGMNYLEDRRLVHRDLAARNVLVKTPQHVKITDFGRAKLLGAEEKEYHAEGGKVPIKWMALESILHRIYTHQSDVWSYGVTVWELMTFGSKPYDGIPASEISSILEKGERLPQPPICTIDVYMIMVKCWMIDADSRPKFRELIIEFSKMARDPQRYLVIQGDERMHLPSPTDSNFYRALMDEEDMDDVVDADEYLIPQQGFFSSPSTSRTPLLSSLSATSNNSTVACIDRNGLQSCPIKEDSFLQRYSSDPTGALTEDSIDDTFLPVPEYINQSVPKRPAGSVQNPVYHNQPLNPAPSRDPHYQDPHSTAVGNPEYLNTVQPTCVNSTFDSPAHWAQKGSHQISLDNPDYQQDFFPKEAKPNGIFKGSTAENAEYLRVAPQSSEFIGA
row,Compound,IC50 [nM]
1,"CCN1CCC(c2ccc(-c3cc(Cl)c4cn(C(C(=O)Nc5nccs5)c5ncn6c5C[C@@H](F)C6)nc4c3)cc2)CC1 (mixture of isomers) [Example 117, rac-2-(4-Chloro-6-(4-(1-ethylpiperidin-4-yl)phenyl)-2H-indazol-2-yl)-2-((R)-6-fluoro-6,7-dihydro-5H-pyrrolo[1,2-c]imidazol-1-yl)-N-(thiazol-2-yl)acetamide]",9
2,"O=C(Nc1nccs1)C(c1ncn2c1C[C@@H](F)C2)n1cc2c(Cl)cc(-c3ccc(CCCN4CCC(O)CC4)cc3)c(Cl)c2n1 (mixture of isomers) [Example 57, rac-2-(4,7-Dichloro-6-(4-(3-(4-hydroxypiperidin-1-yl)propyl)phenyl)-2H-indazol-2-yl)-2-((R)-6-fluoro-6,7-dihydro-5H-pyrrolo[1,2-c]imidazol-1-yl)-N-(thiazol-2-yl)acetamide]",7
3,"CN(C)Cc1ccc(-c2cc(Cl)c3cn(C(C(=O)Nc4nccs4)c4ncn5c4C[C@@H](F)C5)nc3c2Cl)cc1 (mixture of isomers) [Example 48, rac-2-(4,7-Dichloro-6-(4-((dimethylamino)methyl)phenyl)-2H-indazol-2-yl)-2-((R)-6-fluoro-6,7-dihydro-5H-pyrrolo[1,2-c]imidazol-1-yl)-N-(thiazol-2-yl)acetamide]",8
4,"CCN1CC[C@@H](c2ccc(-c3cc(C)c4cn(C(C(=O)Nc5nccs5)c5ncn6c5C[C@@H](F)C6)nc4c3Cl)cc2)[C@H](F)C1 (single isomer, unassigned) [Example 129]",10
5,"O=C(Nc1nccs1)C(c1ncn2c1C[C@@H](F)C2)n1cc2c(Cl)cc(-c3ccc(C4CC(CN5CCC(CO)CC5)C4)cc3)c(Cl)c2n1 (mixture of isomers) [Example 75, rac-2-(4,7-Dichloro-6-(4-(34(4-(hydroxymethyl)piperidin-1-yl)methyl)cyclobutyl)phenyl)-2H-indazol-2-yl)-2-((R)-6-fluoro-6,7-dihydro-5H-pyrrolo[1,2-c]imidazol-1-yl)-N-(thiazol-2-yl)acetamide]",8
6,"O=C(Nc1nccs1)C(c1ncn2c1C[C@@H](F)C2)n1cc2c(Cl)cc(-c3ccc(C4CC(CN5CCC(O)CC5)C4)cc3)c(Cl)c2n1 (mixture of isomers) [Example 76, rac-2-(4,7-Dichloro-6-(4-(34(4-hydroxypiperidin-1-yl)methyl)cyclobutyl)phenyl)-2H-indazol-2-yl)-2-((R)-6-fluoro-6,7-dihydro-5H-pyrrolo[1,2-c]imidazol-1-yl)-N-(thiazol-2-yl)acetamide]",11
7,"CC(F)CN1CCC(c2ccc(-c3cc(Cl)c4cn(C(C(=O)Nc5nccs5)c5ncn6c5C[C@@H](F)C6)nc4c3Cl)cc2)CC1 (stereo partly drawn) [Example 44, 2-(4,7-Dichloro-6-(4-(1-(2-fluoropropyl)piperidin-4-yl)phenyl)-2H-indazol-2-yl)-2-((R)-6-fluoro-6,7-dihydro-5H-pyrrolo[1,2-c]imidazol-1-yl)-N-(thiazol-2-yl)acetamide]",13
8,"CCc1c(-c2ccc(N3CCOCC3)cc2)cc(Cl)c2cn(C(C(=O)Nc3nccs3)c3ncn4c3C[C@@H](F)C4)nc12 (stereo partly drawn) [Example 125, 2-(4-Chloro-7-ethyl-6-(4-morpholinophenyl)-2H-indazol-2-yl)-2-((R)-6-fluoro-6,7-dihydro-5H-pyrrolo[1,2-c]imidazol-1-yl)-N-(thiazol-2-yl)acetamide]",11
9,"O=C(Nc1nccs1)C(c1ncn2c1CCC2)n1cc2c(Cl)cc(-c3ccc(N4CCOCC4)cc3)c(Br)c2n1 (centres unmarked) [Example 134, 2-(7-Bromo-4-chloro-6-(4-morpholinophenyl)-2H-indazol-2-yl)-2-(6,7-dihydro-5H-pyrrolo[1,2-c]imidazol-1-yl)-N-(thiazol-2-yl)acetamide]",32
10,"CCN1CC[C@@H](c2ccc(-c3cc(C)c4cn(C(C(=O)Nc5nccs5)c5ncn6c5CCC6)nc4c3Cl)cc2)[C@H](F)C1 (single isomer, unassigned) [Example 127]",9
11,"CCN1CCC(c2ccc(-c3cc(Cl)c4cn(C(C(=O)Nc5nccs5)c5ncn6c5CCC6)nc4c3Cl)cc2)CC1 (centres unmarked) [Example 104, 2-(4,7-Dichloro-6-(4-(1-ethylpiperidin-4-yl)phenyl)-2H-indazol-2-yl)-2-(6,7-dihydro-5H-pyrrolo[1,2-c]imidazol-1-yl)-N-(thiazol-2-yl)acetamide]",12
12,"O=C(Nc1nccs1)C(c1ncn2c1C[C@@H](F)C2)n1cc2c(Cl)cc(-c3ccc(N4CCOCC4)nc3)c(Cl)c2n1 (mixture of isomers) [Example 29, 2-[4,7-Dichloro-6-(6-morpholin-4-ylpyridin-3-yl)indazol-2-yl]-2-[rac-(6R)-6-fluoro-6,7-dihydro-5H-pyrrolo[1,2-c]imidazol-1-yl]-N-(1,3-thiazol-2-yl)acetamide]",6
13,CN(CCN1CCC(O)CC1)c1ccc(-c2cc(Cl)c3cn(C(C(=O)Nc4nccs4)c4ncn5c4C[C@@H](F)C5)nc3c2Cl)cc1 (some centres unmarked) [Example 80],8
14,"O=C(Nc1nccs1)C(c1ncn2c1C[C@@H](F)C2)n1cc2c(Cl)cc(-c3ccc(C4CCN(C5CC5)CC4)cc3)c(Cl)c2n1 (stereo partly drawn) [Example 28, 2-(4,7-Dichloro-6-(4-(1-cyclopropylpiperidin-4-yl)phenyl)-2H-indazol-2-yl)-2-((R)-6-fluoro-6,7-dihydro-5H-pyrrolo[1,2-c]imidazol-1-yl)-N-(thiazol-2-yl)acetamide]",17
15,"CCN1CC[C@H](c2ccc(-c3cc(Cl)c4cn(C(C(=O)Nc5nccs5)c5ncn6c5C[C@@H](F)C6)nc4c3Cl)cc2)[C@@H](F)C1 (mixture of isomers) [Example 32, 2-(4,7-Dichloro-6-(4-(rac-(3R,4R)-1-ethyl-3-fluoropiperidin-4-yl)phenyl)-2H-indazol-2-yl)-2-((R)-6-fluoro-6,7-dihydro-5H-pyrrolo[1,2-c]imidazol-1-yl)-N-(thiazol-2-yl)acetamide]",4
16,"CN(C)CCN(C)c1ccc(-c2cc(Cl)c3cn(C(C(=O)Nc4nccs4)c4ncn5c4C[C@@H](F)C5)nc3c2Cl)cc1 (mixture of isomers) [Example 41, rac-2-(4,7-Dichloro-6-(4-((2-(dimethylamino)ethyl)(methyl)amino)phenyl)-2H-indazol-2-yl)-2-((R)-6-fluoro-6,7-dihydro-5H-pyrrolo[1,2-c]imidazol-1-yl)-N-(thiazol-2-yl)acetamide]",10

# Further lines, results first:
row,IC50 [nM],Compound
1,6,"CN(C)CCOc1ccc(-c2cc(Cl)c3cn(C(C(=O)Nc4nccs4)c4ncn5c4C[C@@H](F)C5)nc3c2Cl)cc1 (mixture of isomers) [Example 34, 2-[4,7-Dichloro-6-[4-[2-(dimethylamino)ethoxy]phenyl]indazol-2-yl]-2-[rac-(6R)-6-fluoro-6,7-dihydro-5H-pyrrolo[1,2-c]imidazol-1-yl]-N-(1,3-thiazol-2-yl)acetamide]"
2,5,"Cc1cc(-c2ccc(N3CCOCC3)nc2)c(C)c2nn(C(C(=O)Nc3nccs3)c3ncn4c3C[C@@H](F)C4)cc12 (stereo partly drawn) [Example 124, 2-(4,7-Dimethyl-6-(6-morpholinopyridin-3-yl)-2H-indazol-2-yl)-2-((R)-6-fluoro-6,7-dihydro-5H-pyrrolo[1,2-c]imidazol-1-yl)-N-(thiazol-2-yl)acetamide]"
3,5,"Cc1cc(-c2ccc(N3CCOCC3)cc2)c(Cl)c2nn(C(C(=O)Nc3nccs3)c3ncn4c3C[C@@H](F)C4)cc12 (stereo partly drawn) [Example 128, 2-(7-Chloro-4-methyl-6-(4-morpholinophenyl)-2H-indazol-2-yl)-2-((R)-6-fluoro-6,7-dihydro-5H-pyrrolo[1,2-c]imidazol-1-yl)-N-(thiazol-2-yl)acetamide]"
4,6,"COC1CCN(Cc2ccc(-c3cc(Cl)c4cn(C(C(=O)Nc5nccs5)c5ncn6c5C[C@@H](F)C6)nc4c3Cl)cc2)C1 (mixture of isomers) [Example 98, rac-2-(4,7-Dichloro-6-(4-((3-methoxypyrrolidin-1-yl)methyl)phenyl)-2H-indazol-2-yl)-2-((R)-6-fluoro-6,7-dihydro-5H-pyrrolo[1,2-c]imidazol-1-yl)-N-(thiazol-2-yl)acetamide]"
5,4,"CCN1CCN(c2ccc(-c3cc(Cl)c4cn(C(C(=O)Nc5nccs5)c5ncn6c5C[C@@H](F)C6)nc4c3Cl)cc2)CC1 (stereo partly drawn) [Example 26, 2-(4,7-Dichloro-6-(4-(4-ethylpiperazin-1-yl)phenyl)-2H-indazol-2-yl)-2-((R)-6-fluoro-6,7-dihydro-5H-pyrrolo[1,2-c]imidazol-1-yl)-N-(thiazol-2-yl)acetamide]"
6,3,"O=C(Nc1nccs1)C(c1ncn2c1C[C@@H](F)C2)n1cc2c(Cl)cc(-c3ccc(N4CCOC(CO)C4)cc3)c(Cl)c2n1 (mixture of isomers) [Example 67, rac-2-(4,7-Dichloro-6-(4-(2-(hydroxymethyl)morpholino)phenyl)-2H-indazol-2-yl)-2-((R)-6-fluoro-6,7-dihydro-5H-pyrrolo[1,2-c]imidazol-1-yl)-N-(thiazol-2-yl)acetamide]"
7,4,"CN1CCC(Oc2ccc(-c3cc(Cl)c4cn(C(C(=O)Nc5nccs5)c5ncn6c5C[C@@H](F)C6)nc4c3Cl)cc2)CC1 (stereo partly drawn) [Example 85, 2-(4,7-Dichloro-6-(4-((l-methylpiperidin-4-yl)oxy)phenyl)-2H-indazol-2-yl)-2-((R)-6-fluoro-6,7-dihydro-5H-pyrrolo[1,2-c]imidazol-1-yl)-N-(thiazol-2-yl)acetamide]"
